Source: US20250326771A1, “PIPERAZINE DERIVATIVES USEFUL IN HIV THERAPY” (VIIV HEALTHCARE COMPANY, priority 2022, published 2025)
Like-named read-outs stand apart in the source and are kept apart here.

Tests used:
[1] = target: cIAP2-BIR2 (Homo sapiens (Human), UniProt Q13489); assay: BIR binding assay (FRET competition), cIAP2 BIR2
In short: (§1)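 Compounds tested as 15-point, 3-fold series displacing 200 nM AlexaFluor647-labelled SMAC peptide from His-tagged BIR domain (cIAP1-BIR3 50 nM; cIAP1-BIR2 and cIAP2-BIR2 325 nM; XIAP-BIR3 100 nM), pH 7.4, 60 min. Eu-W1024 (2 nM) added 30 min; emission ratio fitted for IC50.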

[2] = target: cIAP1-BIR3 (Homo sapiens (Human), UniProt Q13490); assay: BIR binding assay (FRET competition), cIAP1 BIR3; details: for cIAP1 BIR3 vs BIR2 separation window: fold separation (FS) for cIAP1
Sequence of cIAP1-BIR3 (Q13490 253-363): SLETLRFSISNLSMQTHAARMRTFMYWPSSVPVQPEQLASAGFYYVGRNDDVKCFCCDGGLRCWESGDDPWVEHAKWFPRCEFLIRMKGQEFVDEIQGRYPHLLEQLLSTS
In short: as §1

[3] = target: XIAP-BIR2 (Homo sapiens (Human), UniProt P98170); assay: BIR binding assay (FRET competition), XIAP BIR2; details: for IC50: read-out: XIAP BIR2 (pIC50) (converted)
Sequence of XIAP-BIR2 (P98170 124-240): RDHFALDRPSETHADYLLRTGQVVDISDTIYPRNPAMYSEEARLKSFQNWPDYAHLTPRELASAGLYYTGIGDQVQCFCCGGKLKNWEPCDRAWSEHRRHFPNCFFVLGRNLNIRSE
In short: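 Competitive TR-FRET used His-tagged XIAP-BIR2 (200 nM) and 200 nM AlexaFluor647-labelled AVPIAQKSE SMAC peptide in HEPES buffer pH 7.4 with CHAPS, glycerol and DTT, incubated 60 min before 30 min with 2 nM Eu-W1024. The 615/665 nm ratio from a 15-point, 3-fold series was fit with a four-parameter model for IC50/pIC50.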

[4] = system: Jurkat HIV-luciferase clones; assay: Jurkat latency reversal assay; type: cell-based; details: Homo sapiens, 48 h; Jurkat latency reversal assay potency; read-out: Jurkat pEC50 (converted)
In short: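 EC50 and maximal activation versus vehicle were derived by four-parameter logistic regression of luciferase luminescence. The luminescence was induced in pooled Jurkat HIV-luciferase clones C16, 115 and N6 (5,000 cells/well) after 48 h at 37° C with duplicate 14-point, 3-fold dilutions starting at 10 μM (0.5% DMSO).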

[5] = target: XIAP-BIR3 (Homo sapiens (Human), UniProt P98170); assay: BIR binding assay (FRET competition), XIAP BIR3; details: for XIAP BIR3 vs BIR2 separation window: fold separation (FS) for XIAP
Sequence of XIAP-BIR3 (P98170 241-356): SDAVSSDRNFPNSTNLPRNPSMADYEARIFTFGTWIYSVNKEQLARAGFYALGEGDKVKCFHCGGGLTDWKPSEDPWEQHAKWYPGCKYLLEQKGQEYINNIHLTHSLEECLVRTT
In short: as §1

[6] = target: cIAP2-BIR3 (Homo sapiens (Human), UniProt Q13489); assay: BIR binding assay (FRET competition), cIAP2 BIR3; details: for cIAP2 BIR3 vs BIR2 separation window: fold separation (FS) for cIAP2
Sequence of cIAP2-BIR3 (Q13489 238-349): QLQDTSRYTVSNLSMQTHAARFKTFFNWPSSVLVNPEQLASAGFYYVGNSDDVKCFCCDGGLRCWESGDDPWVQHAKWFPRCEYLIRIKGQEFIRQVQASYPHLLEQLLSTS

[7] = target: cIAP1-BIR2 (Homo sapiens (Human), UniProt Q13490); assay: BIR binding assay (FRET competition), cIAP1 BIR2
Sequence of cIAP1-BIR2 (Q13490 173-257): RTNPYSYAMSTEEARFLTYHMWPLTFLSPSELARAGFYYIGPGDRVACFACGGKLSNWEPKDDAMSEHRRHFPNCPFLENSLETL
In short: as §1

Sequence of cIAP2-BIR2 (Q13489 158-242): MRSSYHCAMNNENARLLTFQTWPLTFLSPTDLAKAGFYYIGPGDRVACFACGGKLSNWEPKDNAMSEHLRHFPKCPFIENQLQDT

In the case of `C[C@@H]1CN(CC(=O)N2CC(C)(C)c3[nH]c(=O)c(Cc4ccc(F)cc4C#N)cc32)[C@@H](CN2CCO[C@H](C(=O)NCc3ccc(CNC(=O)[C@@H]4CN(C[C@H]5CN[C@H](C)CN5CC(=O)N5CC(C)(C)c6[nH]c(=O)c(Cc7ccc(F)cc7C#N)cc65)CCO4)cc3)C2)CN1` [Compound 179, (2S,2′S)-N,N′-(1,4-phenylenebis(methylene)) bis(4-(((2R,5R)-1-(2-(6-(2-cyano-4-fluorobenzyl)-3,3-dimethyl-5-oxo-2,3,4,5-tetrahydro-1H-pyrrolo[3,2-b]pyridin-1-yl)-2-oxoethyl)-5-methylpiperazin-2-yl)methyl)morpholine-2-carboxamide)], the IC50 [1] is reported as 1000 to 3160 nM, the IC50 [2] is reported as 15.8 to 31.6 nM and the “cIAP1 BIR3 vs BIR2 separation window” value [2] is reported as “++ (1,000>FS>100)”. For the same molecule, the IC50 ([3]; FRET competition) was 10000 to 51300 nM, the EC50 [4] was 12.6 to 63.1 nM and the IC50 [5] was 31.6 to 501 nM. For the same molecule, the “XIAP BIR3 vs BIR2 separation window” value [5] was “+++ (10,000>FS>1,000)”, the IC50 [6] was 15.8 to 31.6 nM and the “cIAP2 BIR3 vs BIR2 separation window” value [6] was “+++ (10,000>FS>1,000)”. It also gave an IC50 [7] of 1000 to 3160 nM.
In the case of `C[C@@H]1CN(CC(=O)N2CC(C)(C)c3[nH]c(=O)c(Cc4ccc(F)cc4)cc32)[C@@H](CN2CCN(CCc3cn(CCCCC(=O)N4CCN(C[C@H]5CN[C@H](C)CN5CC(=O)N5CC(C)(C)c6[nH]c(=O)c(Cc7ccc(F)cc7)cc65)[C@H](C)C4)nn3)C[C@H]2C)CN1` [Compound 158], the IC50 [1] is reported as 22.4 to 1000 nM, the IC50 [2] is reported as 7.94 to 15.8 nM and the “cIAP1 BIR3 vs BIR2 separation window” value [2] is reported as “++ (1,000>FS>100)”. The IC50 ([3]; FRET competition) was 10000 to 51300 nM, the EC50 [4] was 63.1 to 316 nM and the IC50 [5] was 7.94 to 15.8 nM. For the same molecule, the “XIAP BIR3 vs BIR2 separation window” value [5] was “++++ (FS>10,000)”, the IC50 [6] was 7.94 to 15.8 nM and the “cIAP2 BIR3 vs BIR2 separation window” value [6] was “++ (1,000>FS>100)”. It also gave an IC50 [7] of 1000 to 3160 nM.
With `C[C@@H]1CN(CC(=O)N2CC(C)(C)c3[nH]c(=O)c(Cc4ccc(F)cc4)cc32)[C@@H](CN2CCO[C@H](C(=O)N(C)CCCN(C)C(=O)[C@@H]3CN(C[C@H]4CN[C@H](C)CN4CC(=O)N4CC(C)(C)c5[nH]c(=O)c(Cc6ccc(F)cc6)cc54)CCO3)C2)CN1` [Example 130, (2S,2'S)-N,N′-(Propane-1,3-diyl)bis(4-(((2R,5R)-1-(2-(6-(4-fluorobenzyl)-3,3-dimethyl-5-oxo-2,3,4,5-tetrahydro-1H-pyrrolo[3,2-b]pyridin-1-yl)-2-oxoethyl)-5-methylpiperazin-2-yl)methyl)-N-methylmorpholine-2-carboxamide)] the IC50 [1] was 1000 to 3160 nM, the IC50 [2] was 1.38 to 7.94 nM and the “cIAP1 BIR3 vs BIR2 separation window” value [2] was “+++ (10,000>FS>1,000)”. The IC50 ([3]; FRET competition binding) was 10000 to 51300 nM, the EC50 [4] was 12.6 to 63.1 nM and the IC50 [5] was 7.94 to 15.8 nM. For the same molecule, the “XIAP BIR3 vs BIR2 separation window” value [5] was “++++ (FS>10,000)”, the IC50 [6] was 1.38 to 7.94 nM and the “cIAP2 BIR3 vs BIR2 separation window” value [6] was “+++ (10,000>FS>1,000)”. For the same molecule, the IC50 [7] was 1000 to 3160 nM.
In the case of `C[C@@H]1CN(CC(=O)N2CC(C)(C)c3[nH]c(=O)c(Cc4ccc(F)cc4)cc32)[C@@H](CN2CCO[C@H](C(=O)NCCCC(=O)N3CCN(C[C@H]4CN[C@H](C)CN4CC(=O)N4CC(C)(C)c5[nH]c(=O)c(Cc6ccc(F)cc6)cc54)[C@H](C)C3)C2)CN1` [Compound 160, (S)-4-(((2R,5R)-1-(2-(6-(4-fluorobenzyl)-3,3-dimethyl-5-oxo-2,3,4,5-tetrahydro-1H-pyrrolo[3,2-b]pyridin-1-yl)-2-oxoethyl)-5-methylpiperazin-2-yl)methyl)-N-(4-((R)-4-(((2R,5R)-1-(2-(6-(4-fluorobenzyl)-3,3-dimethyl-5-oxo-2,3,4,5-tetrahydro-1H-pyrrolo[3,2-b]pyridin-1-yl)-2-oxoethyl)-5-methylpiperazin-2-yl)methyl)-3-methylpiperazin-1-yl)-4-oxobutyl)morpholine-2-carboxamide], the IC50 [1] is reported as 1000 to 3160 nM, the IC50 [2] is reported as 7.94 to 15.8 nM and the “cIAP1 BIR3 vs BIR2 separation window” value [2] is reported as “++ (1,000>FS>100)”. The IC50 ([3]; FRET competition) was 10000 to 51300 nM, the EC50 [4] was 63.1 to 316 nM and the IC50 [5] was 7.94 to 15.8 nM. For the same molecule, the “XIAP BIR3 vs BIR2 separation window” value [5] was “++++ (FS>10,000)”, the IC50 [6] was 7.94 to 15.8 nM and the “cIAP2 BIR3 vs BIR2 separation window” value [6] was “+++ (10,000>FS>1,000)”. It also gave an IC50 [7] of 1000 to 3160 nM.
`C[C@@H]1CN(CC(=O)N2CC(C)(C)c3[nH]c(=O)c(Cc4ccc(F)cc4)cc32)[C@@H](CN2CCO[C@H](COc3ccc(OC[C@@H]4CN(C[C@H]5CN[C@H](C)CN5CC(=O)N5CC(C)(C)c6[nH]c(=O)c(Cc7ccc(F)cc7)cc65)CCO4)cc3)C2)CN1` [Example 70, 1,1′-(2,2′-((3R,3′R,6R,6′R)-(((2S,2'S)-((1,4-phenylenebis(oxy))bis(methylene))bis(morpholine-2,4-diyl))bis(methylene))bis(3-methylpiperazine-6,1-diyl))bis(acetyl))bis(6-(4-fluorobenzyl)-3,3-dimethyl-1,2,3,4-tetrahydro-5H-pyrrolo[3,2-b]pyridin-5-one)] was tested, and the IC50 [1] was 1000 to 3160 nM, the IC50 [2] was 15.8 to 31.6 nM and the “cIAP1 BIR3 vs BIR2 separation window” value [2] was “+++ (10,000>FS>1,000)”. The IC50 ([3]; FRET competition binding) was 10000 to 51300 nM, the EC50 [4] was 0.49 to 12.6 nM and the IC50 [5] was 15.8 to 31.6 nM. For the same molecule, the “XIAP BIR3 vs BIR2 separation window” value [5] was “++++ (FS>10,000)”, the IC50 [6] was 7.94 to 15.8 nM and the “cIAP2 BIR3 vs BIR2 separation window” value [6] was “+++ (10,000>FS>1,000)”. The IC50 [7] was 1000 to 3160 nM.
In the case of `C[C@@H]1CN(CC(=O)N2CC(C)(C)c3[nH]c(=O)c(Cc4ccc(F)cc4)cc32)[C@@H](CN2CCO[C@@H](COCCCCOC[C@H]3CN(C[C@H]4CN[C@H](C)CN4CC(=O)N4CC(C)(C)c5[nH]c(=O)c(Cc6ccc(F)cc6)cc54)CCO3)C2)CN1` [Example 113, 1,1′-(2,2′-((3R,3′R,6R,6′R)-(((2R,2′R)-((butane-1,4-diylbis(oxy))bis(methylene))bis(morpholine-2,4-diyl))bis(methylene))bis(3-methylpiperazine-6,1-diyl))bis(acetyl))bis(6-(4-fluorobenzyl)-3,3-dimethyl-1,2,3,4-tetrahydro-5H-pyrrolo[3,2-b]pyridin-5-one)], the IC50 [1] is reported as 3160 to 10000 nM, the IC50 [2] is reported as 7.94 to 15.8 nM and the “cIAP1 BIR3 vs BIR2 separation window” value [2] is reported as “+++ (10,000>FS>1,000)”. For the same molecule, the IC50 ([3]; FRET competition binding) was 10000 to 51300 nM, the EC50 [4] was 0.49 to 12.6 nM and the IC50 [5] was 15.8 to 31.6 nM. For the same molecule, the “XIAP BIR3 vs BIR2 separation window” value [5] was “++++ (FS>10,000)”, the IC50 [6] was 7.94 to 15.8 nM and the “cIAP2 BIR3 vs BIR2 separation window” value [6] was “+++ (10,000>FS>1,000)”. The IC50 [7] was 3160 to 10000 nM.
In the case of `C[C@@H]1CN(CC(=O)N2CC(C)(C)c3[nH]c(=O)c(Cc4ccc(F)cc4)cc32)[C@@H](CN2CCC[C@H](NC(=O)Cc3ccc(CC(=O)N[C@H]4CCCN(C[C@H]5CN[C@H](C)CN5CC(=O)N5CC(C)(C)c6[nH]c(=O)c(Cc7ccc(F)cc7)cc65)C4)cc3)C2)CN1` [Example 42, 2,2′-(1,4-phenylene)bis(N-((S)-1-(((2R,5R)-1-(2-(6-(4-fluorobenzyl)-3,3-dimethyl-5-oxo-2,3,4,5-tetrahydro-1H-pyrrolo[3,2-b]pyridin-1-yl)-2-oxoethyl)-5-methylpiperazin-2-yl)methyl)piperidin-3-yl)acetamide)], the IC50 [1] is reported as 3160 to 10000 nM, the IC50 [2] is reported as 31.6 to 501 nM and the “cIAP1 BIR3 vs BIR2 separation window” value [2] is reported as “++ (1,000>FS>100)”. For the same molecule, the “XIAP BIR2 (pIC50)” value ([3]; FRET competition binding) was “+ (4.29<pIC50<=5.00)”, the EC50 [4] was 316 to 3310 nM and the IC50 [5] was 31.6 to 501 nM. For the same molecule, the “XIAP BIR3 vs BIR2 separation window” value [5] was “+++ (10,000>FS>1,000)”, the “cIAP2 BIR3 (pIC50)” value ([6]; FRET competition binding) was “++ (7.80>pIC50>=7.50)” and the “cIAP2 BIR3 vs BIR2 separation window” value [6] was “+++ (10,000>FS>1,000)”. For the same molecule, the IC50 [7] was 3160 to 10000 nM.
`C[C@@H]1CN(CC(=O)N2CC(C)(C)c3ncc(Nc4ccc(F)cc4)cc32)[C@@H](CN2CCO[C@H](COc3cccc(OC[C@@H]4CN(C[C@H]5CN[C@H](C)CN5CC(=O)N5CC(C)(C)c6ncc(Nc7ccc(F)cc7)cc65)CCO4)c3)C2)CN1` [Compound 143, -[6-(4-fluoroanilino)-3,3-dimethyl-2H-pyrrolo[3,2-b]pyridin-1-yl]-2-[(2R,5R)-2-[[(2S)-2-[[3-[[(2S)-4-[[(2R,5R)-1-[2-[6-(4-fluoroanilino)-3,3-dimethyl-2H-pyrrolo[3,2-b]pyridin-1-yl]-2-oxo-ethyl]-5-methyl-piperazin-2-yl]methyl]morpholin-2-yl]methoxy]phenoxy]methyl]morpholin-4-yl]methyl]-5-methyl-piperazin-1-yl]ethenone] showed an IC50 [1] of 10000 to 51300 nM, an IC50 [2] of 31.6 to 501 nM and an IC50 ([3]; FRET competition) of 10000 to 51300 nM. The EC50 [4] was 316 to 3310 nM, the IC50 [5] was 31.6 to 501 nM and the “XIAP BIR3 vs BIR2 separation window” value [5] was “+++ (10,000>FS>1,000)”. The IC50 [6] was 15.8 to 31.6 nM, the “cIAP2 BIR3 vs BIR2 separation window” value [6] was “++++ (FS>10,000)” and the IC50 [7] was 10000 to 51300 nM.
